According to US20070129426A1, “Therapeutic drugs for arthritis” (Shanghai Ambrosia Pharmaceutical Co., Ltd., priority 2003, published 2007):

Columns and labels:
[1] = system: acute inflammation of mice ear caused by dimethylbenzene; assay: Mice ear inflammation caused by dimethylbenzene; assay type: in vivo, Kunming mice; settings: for Difference (mg) between left and right ear: 4 days, 2 h after dimethylbenzene, n=10
Protocol: Experimental animal: Kunming mice, body weight 18-22 g.
Method of administration: intraperitoneal injection. The doses of wedelolactone were 12.5 mg/kg and 25 mg/kg, respectively; the negative control used 0.5% CMC; the positive control used ibuprofen (25 mg/kg).
Method of experiment: The animals were divided randomly into 4 groups based on their body weights, 10 mice each group. The mice were administered with the test compound for 4 continuous days. On Day 4, both sides of the right ears of the mice were daubed evenly with 50 μl dimethylbenzene 2 hours after the administration. The left ears were not treated. The mice were left for 2 hours and then sacrificed by cervical dislocation. The ear specimens were obtained by punching both ears with a 8 mm hole-puncher. The specimens were weighed and the differences between the left and the right ears were used to evaluate the effect of the compound on the inflammation.

[2] = system: adjuvant-induced arthritis of rats; assay: Adjuvant-induced arthritis of rats; assay type: in vivo, Male Wistar rats; settings: for Left front paw thickness, Day 5 / Right front paw thickness, Day 5 / Right hind paw thickness, Day 5 / Right hind paw volume, Day 5 / Left hind paw thickness, Day 5 / Left hind paw volume, Day 5: day 5 after administration; for Left hind paw thickness, Day 5 / Left hind paw volume, Day 5 / Left hind paw thickness, Day 10 / Left hind paw volume, Day 10 / Left hind paw thickness, Day 15 / Left hind paw volume, Day 15 / Left hind paw thickness, Day 19 / Left hind paw volume, Day 19: adjuvant-injected paw; for Left front paw thickness, Day 10 / Right front paw thickness, Day 10 / Right hind paw thickness, Day 10 / Right hind paw volume, Day 10 / Left hind paw thickness, Day 10 / Left hind paw volume, Day 10: day 10 after administration; for Left front paw thickness, Day 15 / Right front paw thickness, Day 15 / Right hind paw thickness, Day 15 / Right hind paw volume, Day 15 / Left hind paw thickness, Day 15 / Left hind paw volume, Day 15: day 15 after administration; for Left front paw thickness, Day 19 / Right front paw thickness, Day 19 / Right hind paw thickness, Day 19 / Right hind paw volume, Day 19 / Left hind paw thickness, Day 19 / Left hind paw volume, Day 19: day 19 after administration
Protocol: Experimental animal: Male Wistar rats. Body weights were about 150 g.
Method of administration: intraperitoneal injection. The dose of wedelolactone was 0.25 mg/kg or 12.5 mg/kg, prepared in 0.5% CMC. The dose of methotrexate (MTX) is 0.2 mg/kg.
Method of experiment: The animals were divided randomly into 4 groups based on their body weights. They were adapted for 3 days before experiments. The left hind planta of the rats were injected subcutaneously with 0.1 ml CFA emulsion to induce inflammation. On the Day 10, after the administration of the adjuvant, the rats were injected intraperitoneally with 5 ml/kg test compound wedelolactone for 19 continuous days. On and after the day of administration of the adjuvant, the change of thickness of the four rat paws was measured daily using a vernier caliper, and the volume of the back paw were measured using a Plethysmometer. The data from day 5, 10, 15, and 19 after administration were used for statistic analyses.

[3] = system: collagen-induced rat arthritis; assay: Collagen-induced rat arthritis (joint surface temperature, inflammation score); assay type: in vivo, Male Wistar rats; settings: for inflammation score, Day 10 / inflammation score, Day 20 / inflammation score, Day 30: highest total score 16 points; for Joint surface temperature difference (° C.), Day 10: day 10 after first immunization; for Joint surface temperature difference (° C.), Day 20: day 20 after first immunization; for Joint surface temperature difference (° C.), Day 30: day 30 after first immunization
Protocol: (§1) Experimental animal: Male Wistar rats. Body weights were about 120 g.
(§2) Administration method: intraperitoneal injection. The dose of wedelolactone is 6 or 12 mg/kg. Negative control used 0.5% CMC.
Experimental methods: 1). Preparation of type-II collagen. The fresh calf cartilages were ground at 4° C., immersed and washed with Tris-HCL2. The left residue was digested with pepsin. The supernatant was collected and salted out, followed by chromatography with DE-52 column to obtain type-II collagen. The collagen were dissolved in glacial acetic acid and mixed with Freund's adjuvant by grounding. Each of the animals, except the controls, was subcutaneously injected with a total of 2.5 mg/kg collagen at multiple sites of the tail root and back neck. 7 days thereafter, the animals were boostered by subcutaneous administration with 1.0 mg/kg collagen in the tail root and back neck. The immunized animals were divided randomly into 4 groups based on their body weight, 10 mice in each group. The four groups were modeling blank group, modeling control group, low dose wedelolactone group, and high dose wedelolactone group. The daily administration started at day 10 after the first immunization for 3 weeks continuously. The effects of the drug on the rat rheumatoid arthritis and the delayed-hypersensitivity were recorded. Starting from day 10 after the first immunization, the following data were recorded every 10 days: A) arthritis surface temperature (the surface temperature of both hind leg joints were measured by using a digital temperature recorder, and the temperature differences before and after the immunization was calculated). B) arthritis score (arthritis was scored following the method described in the literature. 1 point: inflammation in one area of paws or planta; 2 points: inflammation in more than two areas of paws or planta; 3 points: mild inflammation in the whole legs; 4 points: severe inflammation causing joint rigidity, deformation and dysfunction. The highest score for each paw is 4 points. The highest total score for each rat is 16 points. C) Delayed-hypersensitivity measurement. At day 24, 10 μl type II collagen containing solution was injected subcutaneously in the back of the right ear of each rat. The thickness of the ear before and 48 hr after the injection was measured.

[4] = system: delayed hypersensitivity of the collagen II-induced arthritic rats; assay: Delayed hypersensitivity of collagen II-induced arthritic rats; assay type: in vivo, Male Wistar rats; settings: 48 hr after type II collagen injection
Protocol: as §1, §2
Experimental methods: 1). Preparation of type-II collagen. The fresh calf cartilages were ground at 4° C., immersed and washed with Tris-HCL2. The left residue was digested with pepsin. The supernatant was collected and salted out, followed by chromatography with DE-52 column to obtain type-II collagen. The collagen were dissolved in glacial acetic acid and mixed with Freund's adjuvant by grounding. Each of the animals, except the controls, was subcutaneously injected with a total of 2.5 mg/kg collagen at multiple sites of the tail root and back neck. […] The effects of the drug on the rat rheumatoid arthritis and the delayed-hypersensitivity were recorded. Starting from day 10 after the first immunization, the following data were recorded every 10 days: A) arthritis surface temperature (the surface temperature of both hind leg joints were measured by using a digital temperature recorder, and the temperature differences before and after the immunization was calculated). B) arthritis score (arthritis was scored following the method described in the literature. […] The thickness of the ear before and 48 hr after the injection was measured.

Compound: COc1cc(O)c2c(c1)oc(=O)c1c3cc(O)c(O)cc3oc21 [wedelolactone]
- Difference (mg) between left and right ear ([1]; 12.5 mg/kg i.p.): 11.3 ± 3.6 mg
- Difference (mg) between left and right ear ([1]; 25 mg/kg i.p.): 10.9 ± 4.6 mg
- Inhibition of mice ear inflammation caused by dimethylbenzene ([1]; 12.5 and 25 mg/kg i.p.): could inhibit the inflammation of the mice ear caused by dimethylbenzene
- Primary inflammation of the left foot and secondary inflammation of the right foot (FIG. 4) ([2]; 0.25 mg/kg): prone to be alleviated
- Left front paw thickness, Day 5 ([2]; 0.25 mg/kg i.p.): 4.20 ± 0.11 mm
- Right front paw thickness, Day 5 ([2]; 0.25 mg/kg i.p.): 4.13 ± 0.15 mm
- Right hind paw thickness, Day 5 ([2]; 0.25 mg/kg i.p.): 5.05 ± 0.24 mm
- Right hind paw volume, Day 5 ([2]; 0.25 mg/kg i.p.): 1.18 ± 0.05 mL
- Left hind paw thickness, Day 5 ([2]; 0.25 mg/kg i.p.): 7.10 ± 0.83 mm
- Left hind paw volume, Day 5 ([2]; 0.25 mg/kg i.p.): 1.85 ± 0.24 mL
- Left front paw thickness, Day 10 ([2]; 0.25 mg/kg i.p.): 4.71 ± 0.24 mm
- Right front paw thickness, Day 10 ([2]; 0.25 mg/kg i.p.): 4.66 ± 0.09 mm
- Right hind paw thickness, Day 10 ([2]; 0.25 mg/kg i.p.): 5.28 ± 0.38 mm
- Right hind paw volume, Day 10 ([2]; 0.25 mg/kg i.p.): 1.16 ± 0.08 mL
- Left hind paw thickness, Day 10 ([2]; 0.25 mg/kg i.p.): 8.18 ± 1.22 mm
- Left hind paw volume, Day 10 ([2]; 0.25 mg/kg i.p.): 2.38 ± 0.30 mL
- Left front paw thickness, Day 15 ([2]; 0.25 mg/kg i.p.): 4.61 ± 0.10 mm
- Right front paw thickness, Day 15 ([2]; 0.25 mg/kg i.p.): 4.54 ± 0.15 mm
- Right hind paw thickness, Day 15 ([2]; 0.25 mg/kg i.p.): 5.15 ± 0.35 mm
- Right hind paw volume, Day 15 ([2]; 0.25 mg/kg i.p.): 1.29 ± 0.13 mL
- Left hind paw thickness, Day 15 ([2]; 0.25 mg/kg i.p.): 8.51 ± 0.91 mm
- Left hind paw volume, Day 15 ([2]; 0.25 mg/kg i.p.): 2.63 ± 0.37 mL
- Left front paw thickness, Day 19 ([2]; 0.25 mg/kg i.p.): 4.64 ± 0.17 mm
- Right front paw thickness, Day 19 ([2]; 0.25 mg/kg i.p.): 4.59 ± 0.15 mm
- Right hind paw thickness, Day 19 ([2]; 0.25 mg/kg i.p.): 5.23 ± 0.23 mm
- Right hind paw volume, Day 19 ([2]; 0.25 mg/kg i.p.): 1.36 ± 0.12 mL
- Left hind paw thickness, Day 19 ([2]; 0.25 mg/kg i.p.): 8.49 ± 1.06 mm
- Left hind paw volume, Day 19 ([2]; 0.25 mg/kg i.p.): 2.61 ± 0.42 mL
- Primary inflammation of the left foot and secondary inflammation of the right foot (FIG. 3) ([2]; 12.5 mg/kg): alleviated
- Left front paw thickness, Day 5 ([2]; 12.5 mg/kg i.p.): 4.11 ± 0.11 mm
- Right front paw thickness, Day 5 ([2]; 12.5 mg/kg i.p.): 4.01 ± 0.17 mm
- Right hind paw thickness, Day 5 ([2]; 12.5 mg/kg i.p.): 4.95 ± 0.27 mm
- Right hind paw volume, Day 5 ([2]; 12.5 mg/kg i.p.): 1.10 ± 0.10 mL
- Left hind paw thickness, Day 5 ([2]; 12.5 mg/kg i.p.): 7.13 ± 0.96 mm
- Left hind paw volume, Day 5 ([2]; 12.5 mg/kg i.p.): 1.64 ± 0.31 mL
- Left front paw thickness, Day 10 ([2]; 12.5 mg/kg i.p.): 4.03 ± 0.13 mm
- Right front paw thickness, Day 10 ([2]; 12.5 mg/kg i.p.): 3.95 ± 0.12 mm
- Right hind paw thickness, Day 10 ([2]; 12.5 mg/kg i.p.): 5.05 ± 0.25 mm
- Right hind paw volume, Day 10 ([2]; 12.5 mg/kg i.p.): 1.03 ± 0.10 mL
- Left hind paw thickness, Day 10 ([2]; 12.5 mg/kg i.p.): 8.09 ± 1.05 mm
- Left hind paw volume, Day 10 ([2]; 12.5 mg/kg i.p.): 2.14 ± 0.45 mL
- Left front paw thickness, Day 15 ([2]; 12.5 mg/kg i.p.): 4.11 ± 0.16 mm
- Right front paw thickness, Day 15 ([2]; 12.5 mg/kg i.p.): 4.11 ± 0.16 mm
- Right hind paw thickness, Day 15 ([2]; 12.5 mg/kg i.p.): 5.20 ± 0.23 mm
- Right hind paw volume, Day 15 ([2]; 12.5 mg/kg i.p.): 1.24 ± 0.16 mL
- Left hind paw thickness, Day 15 ([2]; 12.5 mg/kg i.p.): 8.44 ± 1.63 mm
- Left hind paw volume, Day 15 ([2]; 12.5 mg/kg i.p.): 2.42 ± 0.62 mL
- Left front paw thickness, Day 19 ([2]; 12.5 mg/kg i.p.): 4.04 ± 0.14 mm
- Right front paw thickness, Day 19 ([2]; 12.5 mg/kg i.p.): 4.04 ± 0.07 mm
- Right hind paw thickness, Day 19 ([2]; 12.5 mg/kg i.p.): 4.98 ± 0.10 mm
- Right hind paw volume, Day 19 ([2]; 12.5 mg/kg i.p.): 1.19 ± 0.08 mL
- Left hind paw thickness, Day 19 ([2]; 12.5 mg/kg i.p.): 8.53 ± 1.33 mm
- Left hind paw volume, Day 19 ([2]; 12.5 mg/kg i.p.): 2.46 ± 0.75 mL
- Inhibition of rat adjuvant arthritis ([2]; 0.25 or 12.5 mg/kg i.p., 19 days): could effectively inhibit rat adjuvant arthritis
- inflammation score, Day 10 ([3]; 6 mg/kg i.p.): 4.00 ± 2.02
- Joint surface temperature difference (° C.), Day 10 ([3]; 6 mg/kg i.p.): 1.42 ± 0.74 °C
- inflammation score, Day 20 ([3]; 6 mg/kg i.p.): 3.10 ± 1.45
- Joint surface temperature difference (° C.), Day 20 ([3]; 6 mg/kg i.p.): 0.83 ± 0.44 °C
- inflammation score, Day 30 ([3]; 6 mg/kg i.p.): 2.7 ± 1.35
- Joint surface temperature difference (° C.), Day 30 ([3]; 6 mg/kg i.p.): 0.72 ± 0.40 °C
- inflammation score, Day 10 ([3]; 12 mg/kg i.p.): 4.10 ± 2.08
- Joint surface temperature difference (° C.), Day 10 ([3]; 12 mg/kg i.p.): 1.36 ± 0.50 °C
- inflammation score, Day 20 ([3]; 12 mg/kg i.p.): 2.00 ± 1.41
- Joint surface temperature difference (° C.), Day 20 ([3]; 12 mg/kg i.p.): 0.73 ± 0.45 °C
- inflammation score, Day 30 ([3]; 12 mg/kg i.p.): 1.40 ± 1.02
- Joint surface temperature difference (° C.), Day 30 ([3]; 12 mg/kg i.p.): 0.48 ± 0.39 °C
- Inhibition of collagen-induced rat arthritis ([3]; 6 or 12 mg/kg i.p., 3 weeks): can effectively inhibit the collagen-induced rat arthritis
- Increased thickness of the right ear (mm) ([4]; 6 mg/kg i.p.): 0.231 ± 0.113 mm
- Increased thickness of the right ear (mm) ([4]; 12 mg/kg i.p.): 0.194 ± 0.115 mm
